Key:
T. gondii tachyzoites [1] = type: cell-based, Toxoplasma gondii
Method: The HFF cells were seeded in 6-well plates (1 × 10^6 cells per well) and incubated for 48–72 h. Cells in the 6-well plates were infected with 500 fresh tachyzoites per well for 2 h. The well in which cells were not infected with tachyzoites was considered the blank control group. Cells infected with tachyzoites were then treated with Lycosin-I (10 μM), L-C12 (10 μM), L-an (10 μM), SDZ (10 μM, positive control) and DMEM (negative control), respectively. After 7 days, HFFs in the plates were washed twice with PBS, fixed with methanol for 5 min, and then stained with crystal violet for 20 min. Six-well plates were washed with running water, dried, photographed, and then the number and area of plaques were counted using Photoshop version 2020. Three independent experiments were carried out.

RH strain of T. gondii = type: in vivo, mouse; details: mouse, in vivo, ip, 4 mg/kg/day
Method: To evaluate the anti-T. gondii effect of lipopeptides in vivo, we established a mouse model acutely infected with the RH strain of T. gondii. Forty 8-week-old female BALB/c mice weighing 17–19 g were randomly divided into 5 groups (n = 8 per group) and intraperitoneally injected with 1 × 10^3 tachyzoites per mouse. Lycosin-I, L-C12, L-an and sulfadiazine (SDZ) were dissolved in PBS, respectively. As these peptides are small linear peptides that are easily degraded by pepsin; mice were treated with these peptides via intraperitoneal injection (the same way that the mice were infected with T. gondii) rather than oral gavage. After 4 h of infection, mice were traperitoneally injected with 4 mg/kg of Lycosin-I, L-C12, L-an and sulfadiazine solution (once a day) for 7 days. Mice in the negative control group were treated with PBS. Mice in this condition observed daily and the time of death was recorded. The experiment was approved by the Ethics Committee of the School of Basic Medicine of Central South University (approval number: 2021-KT24).

T. gondii tachyzoites [2] = details: mouse, in vivo
Method: Therefore, the mice were treated with 4 mg/kg/day of SDZ or lipopetides for 7 days, and the survival time of the mice was closely monitored for 15 days. […] We also determined the parasite load in the peritoneal fluid and tissues of mice acutely infected with T. gondii after 5 days of treatment. The number of tachyzoites in the peritoneal fluid of the mice was directly counted using a blood cell counting plate (Figure 4B), while the expression of the surface antigen SAG1, a membrane surface protein specific to tachyzoites, was detected via qRT-PCR in the heart, liver, spleen, lung and brain of the mice (Figure 4C–G).
(§1) Total RNA was extracted from each sample using Total RNA Isolation Kit (ENOVA BIO Co., Ltd., Wuhan, China), in accordance with the manufacturer’s instructions. Reverse transcription of RNA into cDNA was performed using the PerfectStart Uni RT&qPCR Kit (TransGen Biotech Co., Ltd., Beijing, China) in accordance with the instructions. cDNA was used as a template for qRT-PCR using PerfectStart Uni RT&qPCR Kit (TransGen Biotech Co., Ltd., Beijing, China). Primers, listed in Table 2, were designed and synthesized by a biotechnology company (Sangon Biotech Co., Ltd., Shanghai, China). Analysis was performed using the comparative threshold cycle method (2^−∆∆Ct). The gene expression levels of genes were normalized to those of housekeeping genes (β-actin or GAPDH).

IFN-γ = type: in vivo, mouse; details: mouse, in vivo
Method: (§2) Once T. gondii has infected a host, a number of inflammatory responses can be induced in the host to resist T. gondii invasion and proliferation. Therefore, we wanted to investigate the expression levels of anti-inflammatory and pro-inflammatory factors in the mice treated with lipopeptides. The expression levels of IFN-γ, TNF-α, IL-4 and IL-10 in the spleen tissues of mice after 5 days of treatment were determined via qRT-PCR (Figure 5). […] Compared to the PBS group, all treatment groups promoted the upregulation of the pro-inflammatory cytokines IFN-γ and TNF-α and the anti-inflammatory cytokine IL-4.
as §1

IL-10 = type: in vivo, mouse; details: mouse, in vivo
Method: as §2, §1

IL-4 = type: in vivo, mouse; details: mouse, in vivo
Method: as §2, §1

TNF-α = type: in vivo, mouse; details: mouse, in vivo
Method: as §2, §1

Toxoplasma [3] = details: cited from earlier work
Excerpt: To evaluate the efficacy of the lipopeptides in vivo, we established a mouse model of acute T. gondii infection.

Toxoplasma [4] = details: mouse; cited from earlier work
Excerpt: We established a mouse model acutely infected with tachyzoites, recorded the survival time of the mice and determined the parasite load in the tissues of the mice. Lycosin-I and L-an can effectively prolong the survival time of mice.

For `Nc1ccc(S(=O)(=O)Nc2ncccn2)cc1` [SDZ, Sulfadiazine], the “number and area of plaques in contrast with DMEM group” value (T. gondii tachyzoites [1]) was “significantly reduced”, the “plaques compared to DMEM group” value (T. gondii tachyzoites [1]) was “no obvious plaque” and the “survival time of mice compared to control group” value (RH strain of T. gondii) was “could not prolong the survival time”. The “parasite load in peritoneal fluid and tissues compared to PBS group” value (T. gondii tachyzoites [2]) was “effectively inhibit the proliferation of tachyzoites in mice”, the “expression of IFN-γ in spleen compared to PBS group” value (IFN-γ) was “promoted the expression” and the “expression of IL-10 in spleen compared to PBS group” value (IL-10) was “inhibited the upregulation of IL-10”. The “expression of IL-4 in spleen compared to PBS group” value (IL-4) was “promoted IL-4 expression”, the “expression of TNF-α in spleen compared to PBS group” value (TNF-α) was “promoted the expression” and the “anti-Toxoplasma effect in vitro” value (Toxoplasma [3]) was “anti-Toxoplasma effect was also observed”. For the same molecule, the “anti-Toxoplasma effect in vivo” value (Toxoplasma [4]) was “anti-Toxoplasma effect was also observed”.

From publication PMC10467082, “Anti-Toxoplasma gondii Effects of Lipopeptide Derivatives of Lycosin-I” (Toxins, 2023)
